Series [1] has as its system sea urchin egg fertilization (sperm-egg fusion). In words: Sea urchin fertilization assays. The class given is cell-based. Here is the method:
A simple sea urchin assay was used to detect and quantitate the ability of sulfate esters to block sperm-egg fusion. Sea urchin sperm was added to freshly collected eggs in the presence and absence of increasing amounts of the sulfate ester zosteric acid, and the eggs were subsequently scored for successful fertilization. Fertilization assays. Healthy sea urchins were induced to spawn by injection with 0.5 M KCL solution. Freshly collected eggs were gently washed and resuspended in filtered sea water (FSW, pH 8.2) and aliquotted into separate tubes for fertilization assays. Zosteric acid was added to each tube from a concentrated stock dissolved in FSW (pH 8.2), along with additional FSW to ensure a constant volume in each tube. Equal amounts of sperm were added to each tube and percent fertilization was determined by direct microscopic counting. Eggs with elevated fertilization membranes were scored as fertilized. Assays were performed at sperm-limiting concentrations that allowed 95–99% fertilization in the absence of zosteric acid.

Series [2] has as its system polyclonal antibodies specific for zosteric acid. In words: Preliminary testing of anti-zosteric acid polyclonal antibodies for cross reactivity. The class given is binding. The text has this:
To investigate the mechanism behind the AF activity of sulfate esters, polyclonal antibodies specific for the sulfate ester zosteric acid were generated (BAbCo, Berkeley, Calif.). […] These antibodies were then used to investigate whether the sulfate ester AF agent zosteric acid directly binds fouling organisms.

The subject of another series is Oceanosprillum. The experiment in a line: Oceanosprillum adhesion test on glass slides. The format is cell-based. The settings on record: 5 mM in artificial seawater, 6-hour period. Here is the method:
Oceanosprillum adhesion test Each test consisted of a control set (with no sulfate esters) and sample sets containing the test molecules. The first test group consisted of a control sample set, a zosteric acid (5 mM) sample set, and an octyl sulfate (5 mM) sample set. The second test group consisted of a control sample set, a zosteric acid (5 mM) sample set, and a methyl sulfate (5 mM) sample set. Sample sets consisted of five 50 mL sterile centrifuge tubes, with each tube containing a glass microscope slide, 50 ml of artificial seawater (ASTM—American Society for testing and materials) with the dissolved sulfate ester, inoculated with an Oceanosprillum culture at 1×10^6 cells/mL. Sample sets were incubated at 23 C, with shaking so that the surface of the slides were horizontal. Over a 6-hour period, individual tubes were taken from the sample sets and tested for microbial adhesion.
(§1) Determination of bacterial adhesion. Samples were removed from the shaker and 1 mL of 50× acridine orange stain (0.5 g/L acridine powder in water) was added to the tube. The stain was allowed to react for 4 minutes. The slides were then removed and fitted with a long cover slip and immediately counted with an epifluorescent microscope fitted with a 100× (oil) objective lens on the under side of the slide. The size of the counting field was 10×10 μm. A total of 20 counts per slide were performed and averaged to yield the number of cells per μm^2, which was in turn converted to cells per mm^2. Error was assigned at 10% which is the standard accepted error for direct counting of bacterial cells.

A further series deals with Alteromonas atlantica. The experiment in a line: Alteromonas atlantica adhesion tests on glass slides. The format is cell-based. The conditions noted are these: for Alteromonas atlantica adhesion relative to controls: 5 mM dissolved in modified ASTM seawater. Here is the method: Alteromonas atlantica adhesion tests. The tests consisted of a control sample set, a zosteric acid (5 mM) sample set, an octyl sulfate (5 mM) sample set, and a methyl sulfate (5 mM) set. A sample set consisted of six 60 mL sterile centrifuge tubes. Each tube contained a glass microscope slide and 50 mL of modified ASTM seawater (American Society for Testing and Materials (1986) D1141-86, ASTM, Philadelphia, Pa.) with dissolved agent, inoculated with Alteromonas atlantica culture to an initial cell density of 1×10^6 cells/mL. The modified seawater consisted of normal ASTM seawater ingredients, however the carbon source glycerol, was only 1000th the normal strength, […], and was void of an amino acid source (casamino acids), in order to allow enough carbon for attachment, but not for significant cell growth.
as §1

For series [3], the system named is natural marine algal biofilms. The experiment in a line: Marine algal biofilm development on RTV-11 silicone coating in running raw seawater. The class given is cell-based, marine algae. The settings on record: 25% (wt/wt) in RTV-11 silicone coated on glass slides; 26 days in running seawater. The text has this:
A 30% (w/v) solution of octyl sulfate in water (Stepan Chemical Co.) was evaporated to dryness under a stream of room temperature air, to recover pure octyl sulfate (FIG. 1). The dry octyl sulfate was incorporated into RTV-11 silicone polymer at a loading of 25% (wt/wt) (RTV-11 silicone, catalyst and primer obtained from General Electric). The mixture was applied to three glass slides previously primed with silicone primer, and allowed to cure to dryness. Three primed glass slides coated with pure RTV-11 served as agent-free controls. After complete drying, the absorption properties of each slide were measured using a Shimadzu UV-2101 spectrophotometer fitted with an integrating sphere. Slides were then placed in a tank of running raw seawater and allowed to incubate outdoors in natural sunlight for 26 days. Water temperature was nominally 15 C. Spectrophotometric determination of biofilm accumulation was measured on each slide periodically. Relative algal biomass was calculated as the ratio of absorption at 680 nm, contributed by chlorophyll a, to that at 750 nm, a wavelength not absorbed by chlorophyll, to correct for differences in turbidity and scattering properties of the different slides.

The test system of a further series is Aureobasidium pullulans. In words: Fungal attachment and growth assay on glass slides. The format is cell-based, Aureobasidium pullulans (ATCC 34261). Here is the method: Aureobasidium pullulans (ATCC 34261) was grown on potato-dextrose agar and harvested according to ASTM G-21-90 protocols (American Society for Testing and Materials (1986) […]-86, ASTM, Philadelphia, Pa.). The resulting spore suspension was used to inoculate liquid culture tubes containing 35 mL of growth medium (nutrient salts with 5 mM sucrose) and 15 mM zosteric acid. Zosteric acid-free medium was prepared as a control. A sterile microscope slide was added to each tube, the tubes were sealed and placed on a rotary shaker table at room temperature. One tube was harvested each day by removing the slide and counting the number of attached spores by direct microscopic counts, as described above.

Series [4] concerns Shewanella putrefaciens cell surface. The experiment in a line: Cell surface binding assay (immuno-gold staining, electron microscopy). The settings on record: cultures grown with 16 mM zosteric acid. Here is the method: The marine bacterium Shewanella putrefaciens were grown in cultures containing zosteric acid and were subsequently examined for bound zosteric acid using immuno-gold staining with the antibody described above.
Cell Surface Binding Assays. The marine bacterium Shewanella putrefaciens was grown in marine broth in the presence of 16 mM zosteric acid. Dense log phase cells were harvest after 5 hours growth, and preserved in 0.5× Kamofsky's fixative (2% formaldehyde, 2.5% gluturaldehyde, 0.05 M sodium cacodylate, 0.25 M sucrose, pH 7.4) for 2 hours, and then transferred to a cacodylate buffer (0.05 M sodium cacodylate, pH 7.4) for storage. Cells were prepared for electron microscopic examination using immuno-gold staining techniques (Harlow, E. and Laine, D., Antibodies, A Laboratory Manual, Cold Spring Harbor Laboratory, 359–421; Roth et al., J. Histochem. Cytochem. 26: 1074–1081 (1978)). The primary antibody used in this study was an anti-zosteric acid polyclonal antibody (BAbCo, Richmond, Calif.).

The test system of the next series is Shewanella putrefaciens. In words: Bacterial agglutination assays (growth and agglutination in liquid culture). The format is cell-based. Here is the method:
To further investigate the role of sulfate esters in agglutination, the ability of sulfate esters to facilitate the agglutination of bacterial cells was investigated. Log-phase cultures grown in the presence of zosteric acid were monitored spectrophotometrically (OD600) for growth, and for agglutination in the presence of increasing amounts of zosteric acid. Bacterial agglutination assays. Log-phase cultures of Shewanella putrefaciens were grown in complete seawater medium containing zosteric acid at a range of concentrations up to 20 mM. Cultures were counted for viable colony forming units at eight hours.

The subject of a further series is equine erythrocytes. The experiment in a line: Red blood cell agglutination assays. The format is cell-based. The conditions noted are these: for concentrations producing erythrocyte agglutination: washed equine erythrocytes, 0.005 to 5.0 mg/mL tested. Here is the method:
Red Blood Cell agglutination assays. Washed equine erythrocytes suspended in 1 mg/mL sodium citrate were placed in microtiter plates designed with wells containing hemispherical bottoms. Negative controls (no zosteric acid) were diluted in isotonic saline solution. Zosteric acid treated cells were diluted with saline containing zosteric acid at eight concentrations ranging from 0.005 to 5.0 mg/mL. Positive controls were exposed to the same range of high molecular weight heparin sulfate concentrations.

Series [5] concerns clot formation (prothrombin clotting time). The experiment in a line: Prothrombin clotting time assays. The format is biochemical. The conditions noted are these: human serum. Here is the method: Clotting assays. Clotting time assays were performed using commercial kits (Sigma Chemical Co.) for prothrombin clotting time. Serum was harvested from 30 mL of whole human blood obtained by venous puncture using centrifugation to remove blood cells. Zosteric acid and high MW heparin were added to separate aliquots of the serum, producing concentrations from 0 to 5.0 mg/mL. Clotting times were determined for each concentration in duplicate according to the protocols provided with the kit.

Series [6] deals with agglutination of sea urchin eggs by purified bindin. In words: Sea urchin egg agglutination assays with purified bindin. The class given is cell-based. Here is the method:
Sea urchin egg agglutination assays. Freshly spawned eggs were suspended in acidic seawater (pH 5) for 5 minutes to remove the outer jelly coat, and then washed 5 times in normal FSW (pH 8.2). Eggs were then transferred into plastic petri dished containing a range of zosteric acid concentrations and incubated for 15 minutes. Purified bindin (D. Epel, Stanford University) was added to the eggs at concentrations ranging from 1.2 to 12 μg/mL. The mixtures were gently agitated on a rotary shaker for 5 minutes and visually examined for agglutination. Bovine serum albumen (BSA) was used in separate assays to control for nonspecific agglutination of the dejellied eggs.

Where “and” joins values, the source holds several entries; their conditions need not be identical. Identical values can stand only once. Counter-ions that a name gives are not always drawn.

For the compound `CCC(C)(C)c1ccc(OS(=O)(=O)Cl)cc1` [4-PPCS, 4 t-Pentyl Phenyl Chlorosulfate], the “impact on sperm motility” value in [1] (contact with 4-PPCS) was “no adverse impacts”. The “inhibition when more sperm were added to the medium” value in series [1] (exceeding the binding capacity of 4-PPCS in solution) is listed as “could be washed out”. The “effectiveness in blocking sea urchin fertilization” value in [1] (in the range of 1–10 mM) was ~100%.

Consider `O=C(O)C=Cc1ccccc1` [cinnamic acid], for which, in series [2], the “cross reactivity with antibodies specific for zosteric acid” value is “no cross reactivity”.

With `O=C(O)/C=C/c1ccc(O)cc1` [coumaric acid, reference compound], the “effect on egg fertilization” value in series [1] (1 mg/mL) is “no effect”.

For `COc1cc(/C=C/C(=O)O)ccc1O` [ferulic acid], the “cross reactivity with antibodies specific for zosteric acid” value in series [2] is given as “no cross reactivity”.

In the case of `COS(=O)(=O)O` [methyl sulfate], the “Oceanosprillum adhesion (bacterial attachment) relative to control” value in the series with Oceanosprillum is “roughly a two fold reduction”. In addition, in the series on Alteromonas atlantica (5 mM, constant after 120 minutes, controls greater than 700,000), the Alteromonas atlantica adhesion is listed as 150,000 cells/mm^2.

Take `CCCCCCCCOS(=O)(=O)[O-].[Na+]` [octyl sulfate]: in [3], the “algal biofilm development relative to controls lacking octyl sulfate” value was “five fold less”. In addition, the “Oceanosprillum adhesion (bacterial attachment) relative to control” value in the series on Oceanosprillum is recorded as “to an even greater extent than zosteric acid”. Also, the “Alteromonas atlantica adhesion relative to controls” value with Alteromonas atlantica was “slightly higher inhibitory activity than zosteric acid”.

Turning to `O=C(O)/C=C/c1ccc(OS(=O)(=O)O)cc1` [zosteric acid], in the series on Oceanosprillum, the “Oceanosprillum adhesion (bacterial attachment) relative to control” value is listed as “roughly a two fold reduction”. For the same compound, in the series on Alteromonas atlantica, the “Alteromonas atlantica adhesion relative to controls” value is “significant reduction”. The “filamentous growth or mycelial development of colonies” value in the series with Aureobasidium pullulans (15 mM in liquid culture) is “no evidence of filamentous growth or mycelial development”. The “germinated fungal colonies on slides” value in the series with Aureobasidium pullulans (15 mM, after 5 days incubation, control more than 600) is reported as “less than 20 germinated fungal colonies/mm^2”. Also, the “growth of fungal spores in the medium” value in the series with Aureobasidium pullulans (15 mM, clouding of tubes after Day 1) was “observed to grow”. Further, the “zosteric acid bound to bacterial cell surface (immuno-gold staining)” value in series [4] was “bound to the surface of the bacteria”. In the series on Shewanella putrefaciens (at eight hours, among the different cultures), the “counts of viable colony forming units” value is listed as “no difference in cell density”. Besides, the “agglutination of S. putrefaciens” value in the series on Shewanella putrefaciens (concentration dependent, up to 20 mM) was “significant agglutination”. For the same compound, in the series on Shewanella putrefaciens (concentrations up to 16 mM), the “growth of S. putrefaciens in liquid culture” value is given as “did not inhibit the growth”. Besides, in the series with equine erythrocytes (from erythrocyte agglutination concentrations), the “reactivity with cell surface glycoproteins and polysaccharides relative to high molecular weight heparin” value is listed as “eight times more reactive”. Moreover, in the series with equine erythrocytes, the “concentrations producing erythrocyte agglutination” value is ≥ 0.175 mg/mL. The “concentrations effective at preventing clot formation” value in [5] is on record as “exceeding 10 mg/ml”. Also, the “concentration range effective in blocking sea urchin fertilization” value in series [1] fell in the range of 1 to 10 mM. Further, the fertilization remaining in series [1] (1 mg/mL) came to 21%. Also, the “effectiveness at inhibiting fertilization relative to heparin” value in series [1] (equal mass concentrations, 1 mg/mL) is on record as “at least twice as effective”. For the same compound, in series [1] (sea urchin eggs, sperm-limiting concentrations), the “concentrations that completely blocked fertilization” value is “higher than 0.5 mg/mL and > 1.5 mM”. Moreover, the “effect on sperm viability or motility” value in [1] (sea urchin sperm exposed to zosteric acid) is recorded as “no detected effect”. For the same compound, the “reversibility of fertilization inhibition” value in series [1] (unfertilized eggs of highest treatment washed and re-exposed to fresh sperm) is reported as “reversible”. For the same compound, the Agglutination entry in [6] ([ZA] 0.015 mg mL^−1), in series [6] ([ZA] 0.03 mg mL^−1), in [6] ([ZA] 0.075 mg mL^−1), in series [6] ([ZA] 0.15 mg mL^−1), in series [6] ([ZA] 0.30 mg mL^−1) and in series [6] ([ZA] 0.75 mg mL^−1) was “Yes” throughout. Also, the Agglutination entry in series [6] ([ZA] 1.5 mg mL^−1) and in [6] ([ZA] 3 mg mL^−1) was “No” in each case.

heparin [reference compound]: the “concentrations producing erythrocyte agglutination” value in the series on equine erythrocytes is on record as “greater than 0.75 mg/mL”. In [5], the “concentrations effective at preventing clot formation” value is “below 0.1 mg/ml”. Also, in [1] (1 mg/mL), the reduction of fertilization result was “approximately 50%”.

These data come from US7087661B1, “Safe and effective biofilm inhibitory compounds and health-related uses thereof” (Cernofina, LLC, priority 1998, dated 2006).
